Key:
Format in all cases: in vivo
[1] = system: marigold (Tagetes spp.); test: Postemergence herbicidal activity, marigold
Protocol: (§1) Using the procedure described below, compounds of the invention are evaluated for control of several of the following plant species:
(§2) The following est procedure is employed. Seeds of selected crops and weeds are planted in soil in flats. For preemergence tests, the flats are treated with the test compound immediately after the planting. For postemergence tests, the seeds are allowed to germinate, and after two weeks the flats are treated with the test compound. The compound to be evaluated is dissolved in acetone, diluted with water, and sprayed over the flats using a carrier volume equivalent to 50 gallons per acre at the rate of application (pounds per acre, lb/A.) specified in the tables. About two weeks after the application of the test compound, the state of growth of the plants is observed and the phytotoxic effect of the compound is evaluated. Tables III and IV give the average percent control achieved by test compounds in terms of the percent of the plants which are killed by the compounds.

[2] = system: yellow nutsedge (Cyperus esculentus); test: Preemergence herbicidal activity, yellow nutsedge
Protocol: as §1, §2

[3] = system: wild oats (Avena fatua); test: Preemergence herbicidal activity, wild oats; settings: Pre
Protocol: as §1, §2

[4] = system: morningglory (Ipomoca spp.); test: Preemergence herbicidal activity, morningglory
Protocol: as §1, §2

[5] = system: downybrome (Bromus tectorum); test: Preemergence herbicidal activity, downybrome; settings: Pre
Protocol: as §1, §2

[6] = system: barnyardgrass (Echinochloa crusgalli); test: Preemergence herbicidal activity, barnyardgrass; settings: Pre
Protocol: as §1
(§3) The following est procedure is employed. Seeds of selected crops and weeds are planted in soil in flats. For preemergence tests, the flats are treated with the test compound immediately after the planting. For postemergence tests, the seeds are allowed to germinate, and after two weeks the flats are treated with the test compound. The compound to be evaluated is dissolved in acetone, diluted with water, and sprayed over the flats using a carrier volume equivalent to 50 gallons per acre at the rate of application (pounds per acre, lb/A.) specified in the tables.

[7] = system: barnyardgrass (Echinochloa crusgalli); test: Postemergence herbicidal activity, barnyardgrass; settings: Echinochloa crus-galli, post-emergence, 336 h, Post; for pest or weed control at 2241.7 g/ha: 2 lb/A
Protocol: as §1, §3

[8] = system: foxtail (Setaria spp.); test: Preemergence herbicidal activity, foxtail; settings: Pre
Protocol: as §1, §2

[9] = system: marigold (Tagetes spp.); test: Preemergence herbicidal activity, marigold
Protocol: as §1, §2

[10] = system: yellow nutsedge (Cyperus esculentus); test: Postemergence herbicidal activity, yellow nutsedge
Protocol: as §1, §2

[11] = system: foxtail (Setaria spp.); test: Postemergence herbicidal activity, foxtail; settings: Post
Protocol: as §1, §2

[12] = system: tomato (Lycopersicon esculentum); test: Preemergence herbicidal activity, tomato; settings: Pre
Protocol: as §1, §2

[13] = system: cocklebur (Xanthium pensylvanicum); test: Postemergence herbicidal activity, cocklebur
Protocol: as §1, §2

[14] = system: velvetleaf (Abutilon theophrasti); test: Postemergence herbicidal activity, velvetleaf
Protocol: as §1, §3

[15] = system: downybrome (Bromus tectorum); test: Postemergence herbicidal activity, downybrome; settings: Post
Protocol: as §1, §2

[16] = system: tomato (Lycopersicon esculentum); test: Postemergence herbicidal activity, tomato; settings: Post
Protocol: as §1, §2

[17] = system: velvetleaf (Abutilon theophrasti); test: Preemergence herbicidal activity, velvetleaf; settings: Pre
Protocol: as §1, §2

[18] = system: wild oats (Avena fatua); test: Postemergence herbicidal activity, wild oats; settings: Post
Protocol: as §1, §2

[19] = system: morningglory (Ipomoca spp.); test: Postemergence herbicidal activity, morningglory
Protocol: as §1, §2

[20] = system: cocklebur (Xanthium pensylvanicum); test: Preemergence herbicidal activity, cocklebur
Protocol: as §1, §2

[21] = Cyperus, pre-emergence, 336 h, 2 lb/A
[22] = Avena fatua, pre-emergence, 336 h, 2 lb/A, read-out: % control, Wild oat
[23] = Ipomoea, pre-emergence, 336 h, 2 lb/A
[24] = Bromus tectorum, pre-emergence, 336 h, 2 lb/A
[25] = Echinochloa crus-galli, pre-emergence, 336 h, 2 lb/A
[26] = Setaria, pre-emergence, 336 h, 2 lb/A
[27] = Cyperus, post-emergence, 336 h, 2 lb/A
[28] = Setaria, post-emergence, 336 h, 2 lb/A
[29] = Solanum lycopersicum, pre-emergence, 336 h, 2 lb/A
[30] = Xanthium strumarium, post-emergence, 336 h, 2 lb/A
[31] = Abutilon theophrasti, post-emergence, 336 h, 2 lb/A
[32] = Bromus tectorum, post-emergence, 336 h, 2 lb/A
[33] = Solanum lycopersicum, post-emergence, 336 h, 2 lb/A
[34] = Abutilon theophrasti, pre-emergence, 336 h, 2 lb/A
[35] = Avena fatua, post-emergence, 336 h, 2 lb/A, read-out: % control, Wild oat
[36] = Ipomoea, post-emergence, 336 h, 2 lb/A
[37] = Xanthium strumarium, pre-emergence, 336 h, 2 lb/A

| Compound | pest or weed control at 2241.7 g/ha ([1]; post-emergence, 336 h, 2 lb/A) [%] | pest or weed control at 2241.7 g/ha [2, 21] [%] | pest or weed control at 2241.7 g/ha [3, 22] [%] | pest or weed control at 2241.7 g/ha [4, 23] [%] | pest or weed control at 2241.7 g/ha [5, 24] [%] | pest or weed control at 2241.7 g/ha [6, 25] [%] | pest or weed control at 2241.7 g/ha [7] [%] | pest or weed control at 2241.7 g/ha [8, 26] [%] | pest or weed control at 2241.7 g/ha ([9]; pre-emergence, 336 h, 2 lb/A) [%] | pest or weed control at 2241.7 g/ha [10, 27] [%] | pest or weed control at 2241.7 g/ha [11, 28] [%] | pest or weed control at 2241.7 g/ha [12, 29] [%] | pest or weed control at 2241.7 g/ha [13, 30] [%] | pest or weed control at 2241.7 g/ha [14, 31] [%] | pest or weed control at 2241.7 g/ha [15, 32] [%] | pest or weed control at 2241.7 g/ha [16, 33] [%] | pest or weed control at 2241.7 g/ha [17, 34] [%] | pest or weed control at 2241.7 g/ha [18, 35] [%] | pest or weed control at 2241.7 g/ha [19, 36] [%] | pest or weed control at 2241.7 g/ha [20, 37] [%] | further results |
| --- | --- | --- | --- | --- | --- | --- | --- | --- | --- | --- | --- | --- | --- | --- | --- | --- | --- | --- | --- | --- | --- |
| CCOC(=O)CCC(C)Oc1ccc(Oc2ccc(C(F)(F)F)cc2)cc1 (centres unmarked) [Example 39] | 0 | 0 | 50 | 0 | 60 | 99 | 100 | 99 | 0 | 0 | 100 | 0 | 60 | 0 | 100 | 20 | 0 | 100 | 40 | 0 |  |
| CC(Oc1ccc(Oc2ccc(C(F)(F)F)cc2Cl)cc1)C(=O)O (centres unmarked) [Example 15] |  |  |  |  |  |  | 90 |  |  |  |  |  |  |  |  |  |  |  |  |  | % control, Marigold ([1]; Post, 2 lb/A): 0%; % control, Nutsedge ([2]; Pre, 2 lb/A): 0%; % control, Wild oat ([3]; 2 lb/A): 0%; % control, Morningglory ([4]; Pre, 2 lb/A): 40%; % control, Downybrome ([5]; 2 lb/A): 0%; % control, Barnyardgrass ([6]; 2 lb/A): 100%; % control, Foxtail ([8]; 2 lb/A): 100%; % control, Marigold ([9]; Pre, 2 lb/A): 0%; % control, Nutsedge ([10]; Post, 2 lb/A): 0%; % control, Foxtail ([11]; 2 lb/A): 90%; % control, Tomato ([12]; 2 lb/A): 0%; % control, Cocklebur ([13]; Post, 2 lb/A): 0%; % control, Velvetleaf ([14]; Post, 2 lb/A): 0%; % control, Downybrome ([15]; 2 lb/A): 0%; % control, Tomato ([16]; 2 lb/A): 0%; % control, Velvetleaf ([17]; 2 lb/A): 0%; % control, Wild oat ([18]; 2 lb/A): 20%; % control, Morningglory ([19]; Post, 2 lb/A): 0%; % control, Cocklebur ([20]; Pre, 2 lb/A): 0% |
| CC(Oc1ccc(Oc2ccc(C(F)(F)F)cc2Cl)cc1)C(=O)OC(C)(C)C (centres unmarked) [Example 35] | 0 | 0 | 0 | 0 | 0 | 99 | 60 | 100 | 0 | 0 | 100 | 0 | 0 | 0 | 0 | 0 | 0 | 0 | 0 | 0 |  |
| CCOC(=O)C(C)Oc1ccc([S+]([O-])c2cccc(C(F)(F)F)c2)cc1 (centres unmarked) [Example 50] |  |  |  |  |  |  |  |  |  |  |  |  |  |  |  |  |  |  |  |  | pest or weed control at 4483.4 g/ha ([1]; post-emergence, 336 h, 4 lb/A): 0%; pest or weed control at 4483.4 g/ha ([2]; Cyperus, pre-emergence, 336 h, 4 lb/A): 0%; pest or weed control at 4483.4 g/ha ([3]; Avena fatua, pre-emergence, 336 h, 4 lb/A, read-out: % control, Wild oat): 0%; pest or weed control at 4483.4 g/ha ([4]; Ipomoea, pre-emergence, 336 h, 4 lb/A): 0%; pest or weed control at 4483.4 g/ha ([5]; Bromus tectorum, pre-emergence, 336 h, 4 lb/A): 0%; pest or weed control at 4483.4 g/ha ([6]; Echinochloa crus-galli, pre-emergence, 336 h, 4 lb/A): 0%; pest or weed control at 4483.4 g/ha ([7]; 4 lb/A): 20%; pest or weed control at 4483.4 g/ha ([8]; Setaria, pre-emergence, 336 h, 4 lb/A): 0%; pest or weed control at 4483.4 g/ha ([9]; pre-emergence, 336 h, 4 lb/A): 0%; pest or weed control at 4483.4 g/ha ([10]; Cyperus, post-emergence, 336 h, 4 lb/A): 0%; pest or weed control at 4483.4 g/ha ([11]; Setaria, post-emergence, 336 h, 4 lb/A): 0%; pest or weed control at 4483.4 g/ha ([12]; Solanum lycopersicum, pre-emergence, 336 h, 4 lb/A): 0%; pest or weed control at 4483.4 g/ha ([13]; Xanthium strumarium, post-emergence, 336 h, 4 lb/A): 0%; pest or weed control at 4483.4 g/ha ([14]; Abutilon theophrasti, post-emergence, 336 h, 4 lb/A): 0%; pest or weed control at 4483.4 g/ha ([15]; Bromus tectorum, post-emergence, 336 h, 4 lb/A): 0%; pest or weed control at 4483.4 g/ha ([16]; Solanum lycopersicum, post-emergence, 336 h, 4 lb/A): 20%; pest or weed control at 4483.4 g/ha ([17]; Abutilon theophrasti, pre-emergence, 336 h, 4 lb/A): 0%; pest or weed control at 4483.4 g/ha ([18]; Avena fatua, post-emergence, 336 h, 4 lb/A, read-out: % control, Wild oat): 20%; pest or weed control at 4483.4 g/ha ([19]; Ipomoea, post-emergence, 336 h, 4 lb/A): 0%; pest or weed control at 4483.4 g/ha ([20]; Xanthium strumarium, pre-emergence, 336 h, 4 lb/A): 0% |

Reference: patent publication US4335249A, “Herbicidal diphenyl ethers, sulfides, sulfoxides and sulfones” (Rohm and Haas Company, priority 1976, dated 1982)
